Some test systems named below: NCI-H522 lung; RPMI-8226 leukemia; SR leukemia; SK-OV-3 ovarian; UACC-257 melanoma; SF-268 CNS; UO-31 renal; SNB-19 CNS; SW-620 colon; A498 renal.
Experiment in all cases: inhibition of tumour cell growth, NCI panel, 48 h

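All cell lines were grown in 96-well plates and treated with compound for 48 hours. GI50 is the concentration that inhibits growth by half. TGI marks complete inhibition of growth.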 Where only a bound is given, the exact number is not on record here.

For the molecule `O=C(CO[N+](=O)[O-])OCC(=O)c1ccccc1`, the TGI in the test with NCI-H522 lung, in the test with RPMI-8226 leukemia, in the test on SR leukemia, in the test with SK-OV-3 ovarian, in the test on UACC-257 melanoma and in the test with SF-268 CNS was over 100 µM in each case. The TGI in the test on UO-31 renal, with SNB-19 CNS and in the test on SW-620 colon was over 100 µM in each case.

Take `CN1C/C(=C\c2ccco2)c2nc(N)nc(-c3ccco3)c2C1`: the TGI in the test with NCI-H522 lung, in the test with RPMI-8226 leukemia, in the test with SK-OV-3 ovarian, in the test with UACC-257 melanoma, with SF-268 CNS and in the test on UO-31 renal was over 100 µM each time. Further, the TGI in the test on A498 renal, in the test with SNB-19 CNS and with SW-620 colon was over 100 µM in each case.

Regarding `NC1=NN(c2ccccc2)C(=O)C1/C(=N\NC(=O)c1cc2ccccc2cc1O)C(=O)Nc1ccc(Cl)cc1` (configuration not stated), the TGI is 83.4 µM in the test on NCI-H522 lung; 96.1 µM with RPMI-8226 leukemia; over 100 µM in the test on SK-OV-3 ovarian; 80.4 µM in the test on UACC-257 melanoma; 89.3 µM with SF-268 CNS; 96.1 µM in the test with UO-31 renal. For the same molecule, the TGI in the test with A498 renal was 98.1 µM; in the test with SNB-19 CNS it was over 100 µM; in the test on SW-620 colon, over 100 µM.

As to `NC(=O)NC(=O)C1CCC(=O)N1S(=O)(=O)c1ccc(Cl)cc1` (configuration not stated), the TGI with NCI-H522 lung, in the test on RPMI-8226 leukemia, in the test with SR leukemia, in the test on SK-OV-3 ovarian, in the test with UACC-257 melanoma and in the test with SF-268 CNS was over 100 µM in each case. Also, the TGI in the test with UO-31 renal, in the test with SNB-19 CNS and in the test with SW-620 colon was over 100 µM each time.

As to `O=c1cccccc1[O-].O=c1cccccc1[O-].O=c1cccccc1[O-].[Dy+3]`, the TGI in the test with NCI-H522 lung is over 100 µM; in the test with RPMI-8226 leukemia, 76.2 µM; in the test with SK-OV-3 ovarian, 98.3 µM; in the test on UACC-257 melanoma it was over 100 µM; in the test with SF-268 CNS, over 100 µM; in the test on UO-31 renal it was over 100 µM. For the same molecule, the TGI in the test with A498 renal, in the test with SNB-19 CNS and in the test with SW-620 colon was over 100 µM throughout. Also, the GI50 in the test on A498 renal was 80.7 µM.

Turning to `CN(C)c1ccc(/C=C2\Cc3ccccc3C2=O)cc1Br`, the TGI in the test on NCI-H522 lung was 70.6 µM; with RPMI-8226 leukemia, 84.3 µM; with SK-OV-3 ovarian, over 100 µM; with UACC-257 melanoma, over 100 µM; with SF-268 CNS it was over 100 µM; with UO-31 renal, over 100 µM. Moreover, the TGI in the test with A498 renal, in the test with SNB-19 CNS and in the test on SW-620 colon was over 100 µM in each case.

For the molecule `Nc1ccc2ncc(Nc3ccc(Cl)c(Cl)c3)nc2c1`, the TGI in the test with NCI-H522 lung was 48.8 µM; with RPMI-8226 leukemia, over 100 µM; with SR leukemia, over 100 µM; in the test with SK-OV-3 ovarian, over 100 µM; in the test on UACC-257 melanoma, 54.6 µM; in the test with SF-268 CNS it was over 100 µM. In addition, the TGI with UO-31 renal is over 100 µM; in the test with SNB-19 CNS it was 81.4 µM; in the test on SW-620 colon, over 100 µM.

Turning to `C=CCCC1(CCP(=O)(c2ccccc2)c2ccccc2)OCCO1`, the TGI in the test with NCI-H522 lung, with RPMI-8226 leukemia, in the test with SR leukemia, in the test with UACC-257 melanoma, in the test with SF-268 CNS and with UO-31 renal was over 100 µM in each case. The TGI in the test on SNB-19 CNS and in the test on SW-620 colon was over 100 µM each time.

As to `O=[N+]([O-])C1(CO)COC(CCc2ccccc2)OC1` (configuration not stated), the TGI in the test on NCI-H522 lung, in the test on SR leukemia, in the test with SK-OV-3 ovarian, in the test on UACC-257 melanoma, in the test with UO-31 renal and with SW-620 colon was over 100 µM in each case.

In the case of `O=C1COc2cc3c(cc2N1)SCC(=O)N3`, the TGI with NCI-H522 lung, in the test on RPMI-8226 leukemia, in the test on SR leukemia, with SK-OV-3 ovarian, in the test on UACC-257 melanoma and in the test on SF-268 CNS was over 100 µM throughout. Also, the TGI in the test with UO-31 renal, with SNB-19 CNS and with SW-620 colon was over 100 µM each time.

For `CCOC(=O)/C(=C/c1ccc[nH]1)P(=O)(OCC)OCC`, the TGI in the test with NCI-H522 lung, in the test with RPMI-8226 leukemia, in the test with SR leukemia, with SK-OV-3 ovarian, in the test on UACC-257 melanoma and in the test with SF-268 CNS was over 100 µM each time. Also, the TGI in the test with UO-31 renal, with SNB-19 CNS and with SW-620 colon was over 100 µM in each case.

In the case of `Cc1cc2c(=O)cc(-c3ccncc3)oc2c(C(=O)O)c1C`, the TGI with RPMI-8226 leukemia, in the test on SR leukemia, in the test on SK-OV-3 ovarian, in the test on UACC-257 melanoma, in the test with SF-268 CNS and in the test on UO-31 renal was over 100 µM each time. Besides, the TGI in the test on SNB-19 CNS and with SW-620 colon was over 100 µM throughout.

Consider `CC1=CC(=O)N2[C@H](OC[C@@H]2C(C)C)O1`, for which the TGI with NCI-H522 lung, with RPMI-8226 leukemia, in the test on SR leukemia, in the test on SK-OV-3 ovarian, in the test on UACC-257 melanoma and in the test with SF-268 CNS was over 100 µM in each case. The TGI in the test with UO-31 renal, in the test on SNB-19 CNS and in the test on SW-620 colon was over 100 µM in each case.

For the molecule `CCCCCCCCCCCCCCCC(=O)NCC(OCC)OCC`, the TGI with NCI-H522 lung, in the test on SK-OV-3 ovarian, in the test with UACC-257 melanoma, with SF-268 CNS, with UO-31 renal and in the test on SNB-19 CNS was over 100 µM each time. Also, the TGI in the test with SW-620 colon was over 100 µM.

Consider `Cn1nc(-c2ccccc2)c(C(=O)/C=C/c2ccccc2)c(N2CCCC2)c1=O`, for which the TGI with NCI-H522 lung amounted to 23.7 µM; with RPMI-8226 leukemia, 29.3 µM; in the test on SK-OV-3 ovarian, 85.9 µM; with SF-268 CNS it was 64.2 µM; in the test on UO-31 renal, 38.7 µM; in the test with A498 renal, 26.9 µM. The TGI with SW-620 colon turned out to be 53.7 µM.
